For series [1], the target named is mGFP-K-RASG12V (Homo sapiens (Human), UniProt P01116, G12V). The experiment in a line: K-Ras mislocalization assay (confocal microscopy, Manders coefficient). To be noted: for IC50 / Emax: MDCK cells; for IC50: 48 h treatment, read-out: IC50 (μM), KRASG12V mislocalization; for Emax: maximal effect, Manders coefficient, 48 h; for fold loss of potency to mislocalize KRAS: in comparison with 7. The series is classed as cell-based. Also noted: key to Emax: Manders coefficient: fraction of mCherry-CAAX co-localizing with GFP-K-Ras. As to the method:
Madine Darby Canine Kidney epithelial cells (MDCK) stably co-expressing mGFP-tagged full length oncogenic mutant K-Ras (GFP—K-RASG12V) or mGFP-LactC2 (peptide probe for phosphatidylserine) and mCherry-tagged to the amino acids 179-189 of H-RasC181S, C184S (mCherry-CAAX, localizes primarily to endomembranes) were grown in DMEM-high glucose/sodium pyruvate/10% FBS. The medium was supplemented with 1× Penicillin/Streptomycin for fluorescence microscopy assays, to avoid any microbial contamination from the test compounds added. KLE and Hec50 cells were maintained in DMEM-F-12 medium supplemented with 10% FBS. Hec-1A and Hec-1B cells were grown in McCoy's 5a medium supplemented with 10% FBS. ESS-1 cells were grown in RPMI 1640 medium supplemented with 20% FBS. MPanc96 cells were grown in DMEM supplemented with 10% FBS, MiaPaCa-2 cells in DMEM supplemented with 10% FBS and 2.5% horse serum and all other cell lines were grown in RPMI 1640 supplemented with 10% FBS. All cancer cell media were supplemented with ×Penicillin/Streptomycin. All cell lines were grown at 37° C. with 5% CO2.
MDCK co-expressing GFP—K-RASG12V or LactC2 and mCherry-CAAX were grown on coverslips, treated with 0.1% vehicle (DMSO) or various concentrations of drugs for 48 h, and fixed with 4% paraformaldehyde. The coverslips were mounted in mowiol and imaged by confocal microscopy (Nikon A1) using a 60× objective. Using ImageJ software v1.42q, images were converted to 8-bit, and a threshold to a control pixel of each image was set. As a measure of K-Ras/LactC2 mislocalization, the fraction of mCherry-CAAX co-localizing with mGFP-K-RASG12V was calculated using a Manders coefficient plugin downloaded from Wright Cell Image Facility. The fraction of mCherry-CAAX co-localizing with mGFP-RASG12V (Mander's coefficient) is proportional to K-Ras mislocalization.

The subject of series [2] is MDCK cells co-expressing GFP-K-RASG12V and mCherry-CAAX. In words: Cytotoxicity in mislocalization screen (death of all cells in well). To be noted: drug caused death of all cells in well at 30 μM.

On to `OC[C@H](c1ccccc1)N(CC=C(c1ccccc1)c1ccccc1)CC=C(c1ccccc1)c1ccccc1` [AVA72, reference compound], for which, in series [1], the IC50 (usually the concentration at which inhibition is half-maximal) turned out to be 0.17 µM and the Emax was 0.764. Besides, the “Cytotoxic at 30 μM” value in series [2] is recorded as “No”.

On to `C=CCN(CC=C(c1ccccc1)c1ccccc1)[C@H](C)c1ccc(OC)cc1` [NY0217, (R)-N-allyl-N-(1-(4-methoxyphenyl)ethyl)-3,3-diphenylprop-2-en-1-amine], for which, in series [1], the 50% inhibitory concentration (IC50) turned out to be 13 µM and the Emax was found to be 0.47. Besides, the “Cytotoxic at 30 μM” value in series [2] was “No”.

As for `COc1ccc([C@@H](C)N(C)CC=C(c2ccccc2)c2ccccc2)cc1` [NY0218, (R)-N-(1-(4-methoxyphenyl)ethyl)-N-methyl-3,3-diphenylprop-2-en-1-amine], in series [1], the IC50 is 3.3 µM, the “fold loss of potency to mislocalize KRAS” value came to 7 fold and the Emax was 0.75 ± 0.01. Moreover, the “Cytotoxic at 30 μM” value in series [2] is listed as “No”.

In the case of `COc1ccc(CCN(CC=C(c2ccccc2)c2ccccc2)CC=C(c2ccccc2)c2ccccc2)cc1` [NY0220, N-(3,3-diphenylallyl)-N-(4-methoxyphenethyl)-3,3-diphenylprop-2-en-1-amine], in series [1], the concentration for half-maximal inhibition (IC50) is 3.65 µM and the Emax was 0.605. In addition, the “Cytotoxic at 30 μM” value in series [2] is “No”.

`C(CN1CCc2ccccc2C1)=C(c1ccccc1)c1ccccc1` [NY0221, 2-(3,3-diphenylallyl)-1,2,3,4-tetrahydroisoquinoline]: in series [1], the 50% inhibitory concentration (IC50) was 0.65 µM and the Emax is 0.585. For the same compound, the “Cytotoxic at 30 μM” value in series [2] was “No”.

Consider `COc1ccc([C@@H](C)N(CC=C(c2ccccc2)c2ccccc2)C(C)=O)cc1` [NY0222, (R)-N-(3,3-diphenylallyl)-N-(1-(4-methoxyphenyl)ethyl)acetamide], for which, in series [1], the IC50 came to 0.25 µM and the Emax turned out to be 0.587. In addition, in series [2], the “Cytotoxic at 30 μM” value is on record as “Yes”.

As for `COc1ccc([C@@H](C)N(CC=C(c2ccccc2)c2ccccc2)S(C)(=O)=O)cc1` [NY0223, (R)-N-(3,3-diphenylallyl)-N-(1-(4-methoxyphenyl)ethyl)methanesulfonamide], in series [1], the IC50 was determined as 8.45 µM and the Emax came out at 0.785. In addition, in series [2], the “Cytotoxic at 30 μM” value was “No”.

Regarding `COc1ccc(NC(=O)N(CC=C(c2ccccc2)c2ccccc2)[C@H](C)c2ccc(OC)cc2)cc1` [NY0224, (R)-1-(3,3-diphenylallyl)-3-(4-methoxyphenyl)-1-(1-(4-methoxyphenyl)ethyl)urea], in series [1], the 50% inhibitory concentration (IC50) was 0.64 µM and the Emax is 0.622. Also, the “Cytotoxic at 30 μM” value in series [2] is “No”.

For `COc1ccc([C@@H](C)N(CC=C(c2ccccc2)c2ccccc2)C(=O)Oc2ccccc2)cc1` [NY0225, (R)-phenyl (3,3-diphenylallyl)(1-(4-methoxyphenyl)ethyl)carbamate], in series [1], the IC50 came out at 0.43 µM and the Emax is 0.626. In addition, the “Cytotoxic at 30 μM” value in series [2] is listed as “Yes”.

`COC(=O)CN(CC=C(c1ccccc1)c1ccccc1)[C@H](C)c1ccc(OC)cc1` [NY0228, (R)-methyl 2-((3,3-diphenylallyl)(1-(4-methoxyphenyl)ethyl)amino)acetate]: in series [1], the Emax was 0.705. In series [2], the “Cytotoxic at 30 μM” value is reported as “No”.

`COc1ccc([C@@H](C)N(CC=C(c2ccccc2)c2ccccc2)CC(=O)O)cc1` [NY0229, (R)-2-((3,3-diphenylallyl)(1-(4-methoxyphenyl)ethyl)amino)acetic acid]: in series [1], the IC50 worked out at 6.39 µM and the Emax was found to be 0.522. Besides, in series [2], the “Cytotoxic at 30 μM” value is “No”.

Take `COc1ccc([C@@H](C)N(CC=C(c2ccccc2)c2ccccc2)CC(=O)N2CCN(C)CC2)cc1` [NY0232, (R)-2-((3,3-diphenylallyl)(1-(4-methoxyphenyl)ethyl)amino)-1-(4-methylpiperazin-1-yl)ethanone]: in series [1], the IC50 worked out at 1.1 µM and the Emax was found to be 0.73 ± 0.02. Besides, the “Cytotoxic at 30 μM” value in series [2] is on record as “No”.

On to `COc1ccc([C@@H](C)N(CC=C(c2ccccc2)c2ccccc2)CC(=O)N2CCc3ccccc3C2)cc1` [NY0233, (R)-1-(3,4-dihydroisoquinolin-2(1H)-yl)-2-((3,3-diphenylallyl)(1-(4-methoxyphenyl)ethyl)amino)ethanone], for which, in series [1], the IC50 was found to be 3.56 µM and the Emax is listed as 0.522. For the same compound, the “Cytotoxic at 30 μM” value in series [2] is recorded as “No”.

As to `C#CCN(CC=C(c1ccccc1)c1ccccc1)[C@H](C)c1ccc(OC)cc1` [NY0234, (R)-N-(1-(4-methoxyphenyl)ethyl)-3,3-diphenyl-N-(prop-2-yn-1-yl)prop-2-en-1-amine], in series [1], the 50% inhibitory concentration (IC50) came to 21.9 µM and the Emax is recorded as 0.703. In series [2], the “Cytotoxic at 30 μM” value was “No”.

On to `C=CC(=O)N(CC=C(c1ccccc1)c1ccccc1)[C@H](C)c1ccc(OC)cc1` [NY0235, (R)-N-(3,3-diphenylallyl)-N-(1-(4-methoxyphenyl)ethyl)acrylamide], for which, in series [1], the half-inhibitory concentration (IC50) was 1.21 µM and the Emax is reported as 0.59. In addition, the “Cytotoxic at 30 μM” value in series [2] was “No”.

Consider `C(CN1CCCc2ccccc21)=C(c1ccccc1)c1ccccc1` [NY0237, 1-(3,3-diphenylallyl)-1,2,3,4-tetrahydroquinoline], for which, in series [1], the 50% inhibitory concentration (IC50) came to 12.2 µM and the Emax was found to be 0.79. Besides, the “Cytotoxic at 30 μM” value in series [2] was “No”.

In the case of `COc1ccc([C@@H](C)N(CC=C(c2ccccc2)c2ccccc2)CCO)cc1` [NY0241, (R)-2-((3,3-diphenylallyl)(1-(4-methoxyphenyl)ethyl)amino)ethanol], in series [1], the concentration for half-maximal inhibition (IC50) came to 0.2 µM. Moreover, the Emax in series [1] came to 0.72 ± 0.03; in series [1] (listed as 11e), 0.72. Besides, the “fold increase in KRAS mislocalization potency” value in series [1] (versus hit 7) was 2.5 fold. The “Cytotoxic at 30 μM” value in series [2] was “No”; in series [2] (listed as 11e), “did not show any cytotoxic”.

For the compound `Fc1ccc2c(c1)CCCN2CC=C(c1ccccc1)c1ccccc1` [NY293, 1-(3,3-diphenylallyl)-6-fluoro-1,2,3,4-tetrahydroquinoline], in series [1], the IC50 was found to be 2.3 µM and the Emax turned out to be 0.910. For the same compound, the “Cytotoxic at 30 μM” value in series [2] is recorded as “No”.

In the case of `CC1CCc2ccccc2N1CC=C(c1ccccc1)c1ccccc1` (centres unmarked) [NY304, 1-(3,3-diphenylallyl)-2-methyl-1,2,3,4-tetrahydroquinoline], in series [1], the 50% inhibitory concentration (IC50) came to 2.95 µM and the Emax is recorded as 0.751. In series [2], the “Cytotoxic at 30 μM” value was “No”.

`C(CN1CCC(c2ccccc2)CC1)=C(c1ccccc1)c1ccccc1` [NY306, 1-(3,3-diphenylallyl)-4-phenylpiperidine]: in series [1], the half-inhibitory concentration (IC50) is 3.95 µM and the Emax was found to be 0.893. Moreover, the “Cytotoxic at 30 μM” value in series [2] was “No”.

Consider `C(CN1CCN(c2ccccc2)CC1)=C(c1ccccc1)c1ccccc1` [NY307, 1-(3,3-diphenylallyl)-4-phenylpiperazine], for which, in series [1], the concentration for half-maximal inhibition (IC50) is 4.2 µM and the Emax was 0.858. The “Cytotoxic at 30 μM” value in series [2] is on record as “No”.

Regarding `COc1ccc([C@@H](C)N(CC=C(c2ccccc2)c2ccccc2)C(=O)C(C)F)cc1` (stereo partly drawn) [NY314, N-(3,3-diphenylallyl)-2-fluoro-N-((R)-1-(4-methoxyphenyl)ethyl)propanamide], in series [1], the half-maximal inhibitory concentration (IC50) worked out at 1.69 µM and the Emax stood at 0.842. For the same compound, the “Cytotoxic at 30 μM” value in series [2] is given as “No”.

As to `COc1ccc([C@@H](C)N(CC=C(c2ccccc2)c2ccccc2)CCF)cc1` [NY315, (R)-N-(2-fluoroethyl)-N-(1-(4-methoxyphenyl)ethyl)-3,3-diphenylprop-2-en-1-amine], in series [1], the IC50 is 10.1 µM, the “fold loss of potency to mislocalize KRAS” value came to 20 fold and the Emax worked out at 0.52 ± 0.04. Moreover, the “Cytotoxic at 30 μM” value in series [2] is recorded as “No”.

Take `COc1ccc([C@@H](C)N(CC=C(c2ccccc2)c2ccccc2)CCN2CCOCC2)cc1` [NY316, (R)-N-(1-(4-methoxyphenyl)ethyl)-N-(2-morpholinoethyl)-3,3-diphenylprop-2-en-1-amine]: in series [1], the IC50 worked out at 4.4 µM and the Emax came to 0.86 ± 0.02. Besides, the “Cytotoxic at 30 μM” value in series [2] is listed as “No”.

In the case of `COc1ccc([C@@H](C)N(CC=C(c2ccccc2)c2ccccc2)CCN2CCNC(=O)C2)cc1` [NY325, (R)-4-(2-((3,3-diphenylallyl)(1-(4-methoxyphenyl)ethyl)amino)ethyl) piperazin-2-one], in series [1], the IC50 is 7.7 µM and the Emax was found to be 0.81 ± 0.02. For the same compound, the “fold potency loss compared to 12e” value in series [1] (versus 12e) is on record as 6 fold. Besides, the “Cytotoxic at 30 μM” value in series [2] is reported as “No”.

The values above are taken from patent US12043602B2, “Fendiline derivatives” (The Board of Regents of the University of Texas System, priority 2019, dated 2024).
